Like-named read-outs stand apart in the source and are kept apart here.
Legend:
[1] = system: patients with type 1 diabetes mellitus; assay: Safety: adverse events, hypoglycaemic episodes, local tolerability; format: in vivo, human
[2] = system: plasma glucose (PG) in patients with type 1 diabetes mellitus; format: in vivo, human; settings: for AUE0-30min / AUE0-240min (area under plasma glucose excursions above baseline) / CE30min (plasma glucose excursion at 30 minutes) / CEmax (maximum plasma glucose excursion) / tCEmax (time to maximum plasma glucose excursion) / tPG increase ≥ 20 mg/dL (time to increase in plasma glucose ≥[…]) / tPG ≥70 mg/dL (time to reach plasma glucose ≥[…]): T1DM patients; for AUE0-30min / AUE0-240min (area under plasma glucose excursions above baseline) / CE30min (plasma glucose excursion at 30 minutes) / CEmax (maximum plasma glucose excursion): mean (SD), SD; for tCEmax (time to maximum plasma glucose excursion) / tPG increase ≥ 20 mg/dL (time to increase in plasma glucose ≥[…]) / tPG ≥70 mg/dL (time to reach plasma glucose ≥[…]): median (range)
[3] = format: in vivo, human
[4] = euglycaemia, single s.c. dose 0.6 mg, N=17
[5] = hypoglycaemia, single s.c. dose 0.03 mg, N=17
[6] = hypoglycaemia, single s.c. dose 0.08 mg, N=17
[7] = hypoglycaemia, single s.c. dose 0.2 mg, N=17
[8] = hypoglycaemia, single s.c. dose 0.6 mg, N=17
[9] = hypoglycaemia, single s.c. dose 0.03 mg, T1DM patients, mean (SD), N=14, SD

- AUC0-inf ([3]; euglycaemia, single s.c. dose 0.6 mg, T1DM patients, mean (SD), N=17, SD): 3710 (585) pmol*h/L
- Tmax ([3]; euglycaemia, single s.c. dose 0.6 mg, T1DM patients, median (range), N=17): 0.5 (0.25‐1) h
- Tmax ([3]; human, plasma, sc, 0.03 mg): 30 min
- CL/F ([3]; human, plasma, sc, 0.03 mg, SD): 863 mL/min
- half-life ([3]; human, plasma, sc, 0.03 mg, SD): 22.9 min
- Tmax ([3]; human, plasma, sc, 0.08 mg): 30 min
- CL/F ([3]; human, plasma, sc, 0.08 mg, SD): 688 mL/min
- half-life ([3]; human, plasma, sc, 0.08 mg, SD): 28.4 min
- Tmax ([3]; human, plasma, sc, 0.2 mg): 30 min
- half-life ([3]; human, plasma, sc, 0.2 mg, SD): 33.9 min
- Tmax ([3]; human, plasma, sc, 0.6 mg): 30 min
- AUC0-inf [3, 9]: 182 (45.9) pmol*h/L
- CL/f (total body clearance) [3, 9]: 52.6 (16.7) L/h
- AUC0-240min ([3]; hypoglycaemia, single s.c. dose 0.03 mg, T1DM patients, mean (SD), N=17, SD): 174 (43.1) pmol*h/L
- Tmax ([3]; hypoglycaemia, single s.c. dose 0.03 mg, T1DM patients, median (range), N=17): 0.5 (0.25‐1) h
- t1/2 (terminal elimination half-life) ([3]; hypoglycaemia, single s.c. dose 0.08 mg, T1DM patients, mean (SD), N=16, SD): 0.472 (0.154) h
- Tmax ([3]; hypoglycaemia, single s.c. dose 0.08 mg, T1DM patients, median (range), N=17): 0.5 (0.25‐1) h
Compound: CC(C)C[C@H](NC(=O)[C@H](Cc1c[nH]c2ccccc12)NC(=O)[C@H](CCCCN)NC(=O)[C@@H](NC(=O)[C@H](Cc1ccccc1)NC(=O)[C@H](CCC(=O)O)NC(=O)[C@H](CCC(=O)O)NC(=O)[C@H](C)NC(=O)[C@H](CCCNC(=N)N)NC(=O)[C@H](C)NC(=O)C(C)(C)NC(=O)[C@H](CC(=O)O)NC(=O)[C@H](CC(C)C)NC(=O)[C@H](Cc1ccc(O)cc1)NC(=O)[C@H](CCCCN)NC(=O)[C@H](CO)NC(=O)[C@H](Cc1ccc(O)cc1)NC(=O)[C@H](CC(=O)O)NC(=O)[C@H](CO)NC(=O)[C@@H](NC(=O)[C@H](Cc1ccccc1)NC(=O)[C@@H](NC(=O)CNC(=O)[C@H](CCC(N)=O)NC(=O)[C@H](CO)NC(=O)[C@@H](N)Cc1c[nH]cn1)[C@@H](C)O)[C@@H](C)O)C(C)C)C(=O)N[C@@H](CCC(=O)O)C(=O)N[C@@H](CO)C(=O)N[C@H](C(=O)O)[C@@H](C)O [Dasiglucagon, dasiglucagon]
- Total hypoglycaemic events ([1]; 17 completers, range of small doses (0.03-0.2 mg)): 18
- Overall safety and tolerability ([1]; all doses (0.03-0.6 mg s.c.)): safe and well tolerated
- Median time (range) to an increase in PG of at least […] (20 mg/dL) ([2]; 0.03 mg s.c., at both euglycaemia and hypoglycaemia): < 20 (18‐19.5) minutes
- AUE0-30min [2, 4]: 18.3 (5.25) mg*h/dL
- AUE0-240min (area under plasma glucose excursions above baseline) [2, 4]: 479 (159) mg*h/dL
- CE30min (plasma glucose excursion at 30 minutes) [2, 4]: 79.8 (23.4) mg/dL
- CEmax (maximum plasma glucose excursion) [2, 4]: 165 (46.1) mg/dL
- tCEmax (time to maximum plasma glucose excursion) [2, 4]: 90.0 (70‐240) min
- tPG increase ≥ 20 mg/dL (time to increase in plasma glucose ≥[…]) [2, 4]: 10.0 (8‐14) min
- Patients achieving a PG level of at least […] within 30 minutes post-dose ([2]; hypoglycaemia, dose levels of 0.08 mg and above): 100%
- Patients achieving a PG level of at least […] within 30 minutes post-dose ([2]; hypoglycaemia, lowest dose level (0.03 mg)): 70.6%
- AUE0-30min [2, 5]: 4.60 (5.24) mg*h/dL
- AUE0-240min (area under plasma glucose excursions above baseline) [2, 5]: 70.6 (100) mg*h/dL
- CE30min (plasma glucose excursion at 30 minutes) [2, 5]: 23.7 (24.9) mg/dL
- CEmax (maximum plasma glucose excursion) [2, 5]: 37.9 (38.9) mg/dL
- tPG increase ≥ 20 mg/dL (time to increase in plasma glucose ≥[…]) ([2]; hypoglycaemia, single s.c. dose 0.03 mg, N=10): 19.5 (12‐42) min
- tPG ≥70 mg/dL (time to reach plasma glucose ≥[…]) ([2]; hypoglycaemia, single s.c. dose 0.03 mg, N=13): 14.0 (5‐37) min
- tCEmax (time to maximum plasma glucose excursion) [2, 5]: 50.0 (0‐90) min
- AUE0-30min [2, 6]: 14.3 (10.1) mg*h/dL
- AUE0-240min (area under plasma glucose excursions above baseline) [2, 6]: 249 (201) mg*h/dL
- CE30min (plasma glucose excursion at 30 minutes) [2, 6]: 63.9 (38.6) mg/dL
- CEmax (maximum plasma glucose excursion) [2, 6]: 106 (61.1) mg/dL
- tCEmax (time to maximum plasma glucose excursion) [2, 6]: 70.0 (50‐90) min
- tPG increase ≥ 20 mg/dL (time to increase in plasma glucose ≥[…]) [2, 6]: 14.0 (7‐48) min
- tPG ≥70 mg/dL (time to reach plasma glucose ≥[…]) [2, 6]: 10.0 (2‐27) min
- AUE0-30min [2, 7]: 19.0 (6.43) mg*h/dL
- AUE0-240min (area under plasma glucose excursions above baseline) [2, 7]: 406 (175) mg*h/dL
- CE30min (plasma glucose excursion at 30 minutes) [2, 7]: 86.8 (27.2) mg/dL
- CEmax (maximum plasma glucose excursion) [2, 7]: 154 (48.4) mg/dL
- tCEmax (time to maximum plasma glucose excursion) [2, 7]: 90.0 (70‐150) min
- tPG increase ≥ 20 mg/dL (time to increase in plasma glucose ≥[…]) [2, 7]: 11.0 (8‐20) min
- tPG ≥70 mg/dL (time to reach plasma glucose ≥[…]) [2, 7]: 6.0 (5‐11) min
- AUE0-30min [2, 8]: 21.9 (5.68) mg*h/dL
- AUE0-240min (area under plasma glucose excursions above baseline) [2, 8]: 535 (187) mg*h/dL
- CE30min (plasma glucose excursion at 30 minutes) [2, 8]: 94.2 (21.9) mg/dL
- CEmax (maximum plasma glucose excursion) [2, 8]: 192 (54.1) mg/dL
- tCEmax (time to maximum plasma glucose excursion) [2, 8]: 90.0 (70‐150) min
- tPG increase ≥ 20 mg/dL (time to increase in plasma glucose ≥[…]) [2, 8]: 9.00 (8‐14) min
- tPG ≥70 mg/dL (time to reach plasma glucose ≥[…]) [2, 8]: 6.0 (2‐8) min

— PMC6587565 (Diabetes, Obesity & Metabolism, 2018)
